Laboratory results reported in publication PMC11995724, “Antibiotic target discovery by integrated phenotypic and activity-based profiling of electrophilic fragments” (Cell chemical biology, 2025).
Counter-ions that a name gives are not always drawn.

Assay: in vitro
Conditions: human, hek293t cells

Question: Which viability at 48 h, 25 µM does the source give for `CC(Cl)C(=O)N1CCn2c(C#N)ccc2C1C` (stereo not shown) [6-F22, 2-(2-chloropropanoyl)-1-methyl-1H,2H,3H,4H-pyrrolo[1,2-a]pyrazine-6-carbonitrile] here?
Answer: 98.2%

Question: Which viability at 48 h, 25 µM does the source give for `O=C(CCl)NCCOc1cccc(F)c1` [6-G03, 2-chloro-N-[2-(3-fluorophenoxy)ethyl]acetamide] here?
Answer: 97.9%

Question: For `O=C(CCl)NCc1ccc(C(=O)N2CCCC2)cc1` [6-G04, 2-chloro-N-{[4-(pyrrolidine-1-carbonyl)phenyl]methyl}acetamide], which viability at 48 h, 25 µM is on record?
Answer: 107%

Question: With `O=C(CCl)NCCOc1cccc(Cl)c1` [6-G05, 2-chloro-N-[2-(3-chlorophenoxy)ethyl]acetamide] as the molecule, how does the viability at 48 h, 25 µM read?
Answer: 107%

Question: For `CC(c1cccc([N+](=O)[O-])c1)N(C)C(=O)CCl` (stereo not shown) [6-G06, 2-chloro-N-methyl-N-[1-(3-nitrophenyl)ethyl]acetamide], which viability at 48 h, 25 µM is on record?
Answer: 1.19%

Question: For `CC(Cl)C(=O)Nc1ccc(NC(=O)c2cccs2)cc1` (stereo not shown) [6-G07, N-[4-(2-chloropropanamido)phenyl]thiophene-2-carboxamide], which viability at 48 h, 25 µM is on record?
Answer: 101%

Question: Which viability at 48 h, 25 µM does the source give for `O=C(CCl)NCc1ccc(OC(F)(F)F)cc1` [6-G08, 2-chloro-N-{[4-(trifluoromethoxy)phenyl]methyl}acetamide] here?
Answer: 1.3%

Question: For `COc1cc2c(cc1NC(=O)C(C)Cl)oc1ccccc12` (stereo not shown) [6-G09, 2-chloro-N-{4-methoxy-8-oxatricyclo[7.4.0.0,2,7]trideca-1(9),2(7),3,5,10,12-hexaen-5-yl}propanamide], which viability at 48 h, 25 µM is on record?
Answer: 93%

Question: Which viability at 48 h, 25 µM does the source give for `CC(Cl)C(=O)Nc1ccccc1C(=O)c1ccccc1` (stereo not shown) [6-G10, N-(2-benzoylphenyl)-2-chloropropanamide] here?
Answer: 102%

Question: Which viability at 48 h, 25 µM does the source give for `CC1CN(CCCNC(=O)CCl)CC(C)O1` (stereo not shown) [6-G11, 2-chloro-N-[3-(2,6-dimethylmorpholin-4-yl)propyl]acetamide hydrochloride] here?
Answer: 116%

Question: With `O=C(CCl)N1CCC(CCc2ccccc2)CC1` [6-G12, 2-chloro-1-[4-(2-phenylethyl)piperidin-1-yl]ethan-1-one] as the molecule, how does the viability at 48 h, 25 µM read?
Answer: 1.05%

Question: With `COc1ccc(S(=O)(=O)N2CCCCC2)cc1NC(=O)CCl` [6-G13, 2-chloro-N-[2-methoxy-5-(piperidine-1-sulfonyl)phenyl]acetamide] as the molecule, how does the viability at 48 h, 25 µM read?
Answer: 1.34%

Question: Which viability at 48 h, 25 µM does the source give for `O=C(CCl)Nc1cc(S(=O)(=O)N2CCCC2)ccc1Cl` [6-G14, 2-chloro-N-[2-chloro-5-(pyrrolidine-1-sulfonyl)phenyl]acetamide] here?
Answer: 1.44%

Question: For `COc1ccc(Cl)cc1NC(=O)C(C)Cl` (stereo not shown) [6-G16, 2-chloro-N-(5-chloro-2-methoxyphenyl)propanamide], which viability at 48 h, 25 µM is on record?
Answer: 112%

Question: Which viability at 48 h, 25 µM does the source give for `O=C(CCl)NCC(c1ccccc1Cl)N1CCCC1` (stereo not shown) [6-G17, 2-chloro-N-[2-(2-chlorophenyl)-2-(pyrrolidin-1-yl)ethyl]acetamide hydrochloride] here?
Answer: 104%

Question: For `O=C(CCl)NC1CCN(Cc2ccccc2)C1` (stereo not shown) [6-G18, N-(1-benzylpyrrolidin-3-yl)-2-chloroacetamide hydrochloride], which viability at 48 h, 25 µM is on record?
Answer: 3.85%

Question: Which viability at 48 h, 25 µM does the source give for `O=C(CCl)NC1CCC(c2nc(-c3ccccc3)n[nH]2)CC1` (stereo not shown) [6-G19, 2-chloro-N-[4-(3-phenyl-1H-1,2,4-triazol-5-yl)cyclohexyl]acetamide] here?
Answer: 39.3%

Question: With `O=C(CCl)N[C@H](CO)Cc1ccccc1` [6-G20, 2-chloro-N-[(2S)-1-hydroxy-3-phenylpropan-2-yl]acetamide] as the molecule, how does the viability at 48 h, 25 µM read?
Answer: 81.9%

Question: Which viability at 48 h, 25 µM does the source give for `C[C@@H](NC(=O)CCl)c1ccc(F)cc1` [6-G21, 2-chloro-N-[(1R)-1-(4-fluorophenyl)ethyl]acetamide] here?
Answer: 129%

Question: With `O=C(CCl)NCCc1cnn(-c2ccccc2)c1` [6-G22, 2-chloro-N-[2-(1-phenyl-1H-pyrazol-4-yl)ethyl]acetamide] as the molecule, how does the viability at 48 h, 25 µM read?
Answer: 1.31%

Question: Which viability at 48 h, 25 µM does the source give for `O=C(CCl)Nc1cc(S(=O)(=O)N2CCOCC2)ccc1Cl` [6-H03, 2-chloro-N-[2-chloro-5-(morpholine-4-sulfonyl)phenyl]acetamide] here?
Answer: 1.8%

Question: With `O=C(CCl)NCCS(=O)(=O)N1CCc2ccccc21` [6-H04, 2-chloro-N-[2-(2,3-dihydro-1H-indole-1-sulfonyl)ethyl]acetamide] as the molecule, how does the viability at 48 h, 25 µM read?
Answer: 14.1%
